One may read the inhibition as the drop in the measured response relative to a control, in per cent.

Results on one compound are retold here after patent US20210346357A1 (priority 2020, published 2021).

For one assay, the target named is Abl2 (Homo sapiens, UniProt P42684). The assay is described as follows: biochemical. As to conditions: read-out: inhibition in the Abl2 assay.
Another assay deals with Abl1 (Homo sapiens, UniProt P00519). As to the kind of experiment: Biochemical ABL1 kinase assay (33P-ATP). As to conditions: read-out: inhibition in the Abl1 assay.
Chain of Abl1 (P00519 whole entry): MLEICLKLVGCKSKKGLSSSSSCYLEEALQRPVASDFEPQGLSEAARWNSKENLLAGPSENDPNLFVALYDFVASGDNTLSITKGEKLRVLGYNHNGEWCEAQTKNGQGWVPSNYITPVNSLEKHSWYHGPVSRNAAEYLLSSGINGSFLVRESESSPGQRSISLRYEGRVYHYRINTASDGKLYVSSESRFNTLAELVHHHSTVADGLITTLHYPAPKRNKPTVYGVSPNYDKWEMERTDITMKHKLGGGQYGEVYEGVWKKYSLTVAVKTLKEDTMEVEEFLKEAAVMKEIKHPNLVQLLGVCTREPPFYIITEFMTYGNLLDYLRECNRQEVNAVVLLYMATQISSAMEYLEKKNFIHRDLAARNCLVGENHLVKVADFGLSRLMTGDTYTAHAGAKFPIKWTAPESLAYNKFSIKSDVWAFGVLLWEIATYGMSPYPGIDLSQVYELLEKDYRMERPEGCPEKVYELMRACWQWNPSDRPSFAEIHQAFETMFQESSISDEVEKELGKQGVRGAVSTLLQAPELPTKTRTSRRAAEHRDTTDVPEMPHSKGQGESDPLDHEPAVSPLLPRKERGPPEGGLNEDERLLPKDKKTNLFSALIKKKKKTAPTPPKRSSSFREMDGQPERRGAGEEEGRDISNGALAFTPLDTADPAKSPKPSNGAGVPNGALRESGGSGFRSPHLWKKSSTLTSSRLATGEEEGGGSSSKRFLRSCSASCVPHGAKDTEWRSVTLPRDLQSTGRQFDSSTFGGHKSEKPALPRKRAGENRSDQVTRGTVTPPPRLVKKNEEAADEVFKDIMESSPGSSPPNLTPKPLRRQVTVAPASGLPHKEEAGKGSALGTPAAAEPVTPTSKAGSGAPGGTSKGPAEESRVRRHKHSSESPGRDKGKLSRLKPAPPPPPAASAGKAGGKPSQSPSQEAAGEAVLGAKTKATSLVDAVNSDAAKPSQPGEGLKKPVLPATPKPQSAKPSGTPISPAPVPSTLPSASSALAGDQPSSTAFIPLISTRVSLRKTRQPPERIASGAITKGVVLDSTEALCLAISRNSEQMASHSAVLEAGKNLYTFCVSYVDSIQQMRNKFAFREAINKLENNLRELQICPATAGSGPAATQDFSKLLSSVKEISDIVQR

Chain of Abl2 (P42684 whole entry): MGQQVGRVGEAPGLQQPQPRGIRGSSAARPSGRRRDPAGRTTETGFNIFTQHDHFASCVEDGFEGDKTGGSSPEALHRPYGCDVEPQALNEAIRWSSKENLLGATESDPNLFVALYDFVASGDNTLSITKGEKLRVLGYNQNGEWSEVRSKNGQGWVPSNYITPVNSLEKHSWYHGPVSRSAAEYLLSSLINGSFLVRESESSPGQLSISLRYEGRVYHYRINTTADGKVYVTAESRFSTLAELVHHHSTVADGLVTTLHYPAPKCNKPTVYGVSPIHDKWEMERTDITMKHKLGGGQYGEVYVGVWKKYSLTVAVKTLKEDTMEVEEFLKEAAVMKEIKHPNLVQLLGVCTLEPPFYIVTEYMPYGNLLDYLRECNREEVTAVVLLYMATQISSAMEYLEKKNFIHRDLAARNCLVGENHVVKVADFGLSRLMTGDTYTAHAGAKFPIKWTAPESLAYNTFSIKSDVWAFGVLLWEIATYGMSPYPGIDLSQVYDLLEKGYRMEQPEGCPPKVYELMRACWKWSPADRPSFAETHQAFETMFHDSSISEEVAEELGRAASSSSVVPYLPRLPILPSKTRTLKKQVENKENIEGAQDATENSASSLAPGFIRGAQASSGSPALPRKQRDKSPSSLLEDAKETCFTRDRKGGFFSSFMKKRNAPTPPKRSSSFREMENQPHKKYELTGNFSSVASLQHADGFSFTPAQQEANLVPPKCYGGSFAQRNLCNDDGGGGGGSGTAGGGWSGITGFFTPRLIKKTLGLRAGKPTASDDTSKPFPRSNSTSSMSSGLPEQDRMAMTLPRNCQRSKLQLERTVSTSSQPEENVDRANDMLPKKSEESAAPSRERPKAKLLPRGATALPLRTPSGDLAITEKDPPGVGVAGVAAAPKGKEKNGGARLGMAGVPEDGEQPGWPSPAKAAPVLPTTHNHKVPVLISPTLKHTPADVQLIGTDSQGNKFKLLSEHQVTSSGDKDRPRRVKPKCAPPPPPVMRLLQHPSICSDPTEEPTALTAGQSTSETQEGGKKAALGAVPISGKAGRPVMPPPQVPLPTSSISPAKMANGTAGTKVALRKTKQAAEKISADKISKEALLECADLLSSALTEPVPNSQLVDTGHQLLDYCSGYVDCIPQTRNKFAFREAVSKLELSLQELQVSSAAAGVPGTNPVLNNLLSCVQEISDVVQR

For `CCS(=O)(=O)N1CC(CC#N)(n2cc(-c3ncnc4[nH]ccc34)cn2)C1` [baricitinib, reference compound], the inhibition at 10 µM on Abl2 was 35%; on Abl1 it was 80%.
